The text below walks through data of the OPERA property sets (Mansouri et al. 2018).

The structures appear in SMILES notation.

Conditions in the first data set: not given
What is called melting point is the temperature of the solid-liquid transition. For the molecule `COC(=O)c1ccccc1S(=O)(=O)NC(=O)Nc1nc(OC(F)F)cc(OC(F)F)n1`, the log10 Koc (L/kg) was found to be 1.08 and the melting point came out at 196 °C.
As for `CC(C)NC(=N)NC(=N)Nc1ccc(Cl)cc1`, the melting point was 129 °C.
Broadly, the boiling point is the temperature at which the vapour pressure of the liquid equals the pressure above it. `CCC(C)I` (stereo unspecified): the boiling point was 120 °C, the log10 vapour pressure (mmHg) came to 1.23 and the melting point was -104 °C.
The molecule `C[C@]12C=C(C=O)C(=O)C=C1CC[C@@H]1[C@@H]2[C@H](O)C[C@@]2(C)[C@H]1CC[C@]2(C)O` returned a melting point of 210 °C.
The molecule `CC1=CC(=O)C(C(C)C)=CC1=O` displayed a boiling point of 232 °C and a melting point of 45.5 °C.
The molecule `C=CCC1(CC=C)C(=O)NC(=O)NC1=O` yielded a melting point of 172 °C.
Molecule `CC1CC(C)CC(O)C1` (stereo unspecified) returned a boiling point of 187 °C and a melting point of 11.6 °C.
`O=c1[nH]c(=O)n([C@H]2C[C@H](O)[C@@H](CO)O2)cc1I`: the melting point is 263 °C.
Still for that read-out and setting: the figure for `CCOCOc1ccc(C(=O)Nc2cccc(Cl)c2Cl)cc1` is 92.5 °C.
Still for that read-out and setting: the figure for `CC(=NO)C(C)=NO` is 246 °C.
In turn, `CC1CCCCC1` returned a boiling point of 101 °C, a log10 Henry constant (atm·m³/mol) of -0.367, a log10 Koa of 3.03 and a log10 biodegradation half-life (days) of 0.602. The molecule further returned a log10 vapour pressure (mmHg) of 1.66 and a melting point of -127 °C.
Regarding `CC1CC1`, the boiling point was determined as 0.7 °C, the log10 vapour pressure (mmHg) worked out at 3.2 and the melting point is -177 °C.
The molecule `CCCCCCNC(=O)n1cc(F)c(=O)[nH]c1=O` came in with a melting point of 110 °C.
Still for that read-out and setting: the figure for `CCCCCCCCCCCCCCCCCC(=O)OCCOCCOCCOCCO` is 40 °C.
`CC(=O)Nc1ccccc1O`: the melting point worked out at 208 °C and the ready biodegradability result is on record as “readily biodegradable”.
`Oc1ccc2c(O)cccc2c1` gave a melting point of 138 °C.
As for `Cc1ccc2ccccc2c1`, the boiling point worked out at 241 °C, the log10 Henry constant (atm·m³/mol) was -3.29, the log10 Koc (L/kg) was determined as 3.6 and the log10 biodegradation half-life (days) was 1.15. The same molecule had a log10 vapour pressure (mmHg) of -1.26 and a melting point of 34.4 °C.
Regarding `CNCCO`, the boiling point was 158 °C, the log10 vapour pressure (mmHg) was found to be 0.0346, the melting point was -4.5 °C and the ready biodegradability result was “readily biodegradable”.
The molecule `FC(F)I` yielded a boiling point of 21.6 °C and a melting point of -122 °C.
In turn, `Cc1cc2c(cc1O)[C@@]1(C)CCCC(C)(C)[C@@H]1CC2=O` displayed a melting point of 250 °C.
For `CC(C)CCC#N`, the boiling point is 156 °C and the melting point was -51 °C.
Regarding `CCN(CC)C(=O)C(Cl)=C(C)OP(=O)(OC)OC`, the log10 Koc (L/kg) was determined as 0.85.
`FB(F)c1ccccc1` had a boiling point of 98 °C and a melting point of -36.2 °C.
`CC(C)N` came in with a boiling point of 31.7 °C, a log10 vapour pressure (mmHg) of 2.76 and a melting point of -95.1 °C.
Turning to `O=C1c2ccccc2C(=O)c2c1cccc2S(=O)(=O)O`, the ready biodegradability entry is given as “not readily biodegradable”.
In turn, `O=[N+]([O-])CCl` displayed a boiling point of 122 °C.
Turning to `O=C(O)CCCCl`, the melting point was determined as 16 °C.
Still for that read-out and setting: the figure for `O=c1oc2cc(O)ccc2s1` is 160 °C.
As to `CC(C)N(N=O)C(C)C`, the boiling point stood at 194 °C and the melting point turned out to be 48 °C.
For the molecule `COc1cc(Cc2cnc(N)nc2N)cc(OC)c1Br`, the melting point turned out to be 226 °C.
Same read-out and setting: the figure for `CCCCC1C(=O)NN(c2ccccc2)C1=O` (stereo unspecified) is 102 °C.
`CCc1ccccc1[N+](=O)[O-]`: the boiling point is 232 °C, the melting point was -12.3 °C and the ready biodegradability entry is “not readily biodegradable”.
`CCCCc1ccccc1`: the boiling point stood at 183 °C, the log10 Koc (L/kg) was determined as 3.39, the log10 vapour pressure (mmHg) turned out to be 0.027 and the melting point was -87.9 °C. Also, the ready biodegradability entry was “not readily biodegradable”.
Regarding `COC(=O)CCCCCCCCCCCC(=O)OC`, the boiling point was 332 °C and the melting point was 36 °C.
With `c1cscn1`, the boiling point came to 118 °C and the log10 vapour pressure (mmHg) was 1.23.
Molecule `Fc1cc(F)nc(F)c1` came in with a boiling point of 94.5 °C.
As for `CCC(S)CC`, the boiling point stood at 105 °C and the melting point was -111 °C.
Turning to `OC1CCCCC1c1ccccc1` (stereo unspecified), the boiling point was 228 °C and the log10 vapour pressure (mmHg) is -1.44.
Turning to `Oc1ccccc1-c1nc2ccccc2s1`, the melting point came to 131 °C.
`Clc1ccccc1-c1ccccc1Cl` yielded a log10 Henry constant (atm·m³/mol) of -3.64, a log10 Koa of 7.18, a log10 Koc (L/kg) of 3.92 and a log10 vapour pressure (mmHg) of -2.56. The melting point was found to be 61.5 °C and the ready biodegradability entry is “not readily biodegradable”.
On to `CCCCCCOC`, for which the boiling point was 126 °C.

Still in this data set, the particulars now being: fish.
`CNC(=O)Oc1cc(C)cc(C)c1` returned a log10 BCF of 0.4.
`Clc1ccc(C(c2ccccc2Cl)C(Cl)(Cl)Cl)cc1` (stereo unspecified) displayed a log10 biotransformation half-life (days) of 1.71.
In turn, `O=C(O)C1CCCCC1C(=O)O` (stereo unspecified) gave a log10 BCF of 0.3.
With `C=CCOP(=O)(OCC=C)OCC=C`, the log10 BCF stood at 0.08.
Take `c1ccc2c(c1)c1ccccc1c1ccccc21`: the log10 biotransformation half-life (days) was -0.08.
Still for that read-out and setting: the figure for `CCc1ccc2ccc3cccc4ccc1c2c34` is 0.24.
Molecule `CC1CCCCC1` yielded a log10 BCF of 2.27 and a log10 biotransformation half-life (days) of 0.57.
In the same order, the values of `Cc1ccc2ccccc2c1` are 1.87 and 0.88.
`Clc1ccc(-c2cc(Cl)c(Cl)c(Cl)c2)cc1` registered a log10 biotransformation half-life (days) of 1.69.
Regarding `CCc1ccccc1[N+](=O)[O-]`, the log10 BCF was 1.11 and the log10 biotransformation half-life (days) was -0.56.
